“And” between values parts separate entries of the source, which are not always exact repeats. Identical values can stand only once. “Also recorded” adds a separate entry of the source. Like-named read-outs stand apart in the source and are kept apart here. Where a SMILES comes first, the peptide text is derived from it. Bridges are numbered along the chain shown (N, C = ends).
Columns and labels:
[1] = Solubility of azo coupling products synthesized in PBS; type: physicochemical; details: synthesized at room temperature in PBS, pH 7.4
Procedure: Dyes stocks were prepared to 1 mg/mL final concentrations. Synthesis was conducted as follows: Fast Dyes were mixed in 1× Dubelcco's PBS with an excess of coupling agent (3-fold molar concentration of coupling agent to fast dye) and vortexed. Reactions were conducted at room temperature and proceeded in the first 5 minutes of mixing with evident color change. Dye stocks were allowed to incubate at room temperature for one week prior to use. Dyes were used without further purification and were diluted prior to use in protein painting. Dye reagents were vortexed before each use, and stable for >6 months at room temperature. Reactions were monitored by reverse phase C18 TLC (mobile phase of 60% methanol, 40% water) to determine number of product bands. […] The two major product bands were separated via reverse-phase flash column chromatography conducted essentially as described previously using a 20 mm column, stationary phase of COSMOSIL C18-OPN reverse phase resin (Nacalai USA, Catalog number 37842-66), and mobile phase of 60% methanol or 30% acetonitrile. Fractions containing individual bands were identified via reverse-phase TLC and were pooled and dried. Pure samples by TLC were analyzed by NMR to confirm structure of each major product.
Two different fast dyes were used to synthesize new dye candidates. Fast Blue B was chosen to synthesize new diazo dyes, as it is structurally similar to the core of TB, while Fast Red TR was chosen to synthesize new halogenated small dyes. Four diverse coupling agents, 4-Amino-1-naphthalenesulfonic Acid or naphthionic acid, 4-Amino-5-hydroxy-2,7-naphthalenedisulfonic acid or H-acid, 7-Amino-1,3-naphthalenedisulfonic acid or Amino G Acid, and 2-napthol were chosen to evaluate the role of sulfonates on specific binding. […] The remaining 5 candidate dyes, Fast Blue B+Naphthionic Acid (FBBNA), Fast Blue B+H-acid (FBBHA), Fast Red TR+Naphthionic Acid (FRNA), Fast Red TR+H-acid (FRHA), and Fast Red TR+Amino G Acid (FRAGA), were all evaluated for their specific binding with respect to thyroglobulin (see Table 3).

[2] = Peptide solubility to 1 mM stock; details: solvent additive for 1 mM stock
Thyroglobulin = molecular target: T1, Thyroglobulin (Bos taurus, UniProt P01267); assay: Specific binding of dye to thyroglobulin (gel filtration, UV-Vis); details: for Specific binding to thyroglobulin at equilibrium: Vmax of Michaelis-Menten fit, no CuSO4
T1 construct: purchased Sigma Aldrich 9010-34-8
Procedure: (§1) To determine specific binding of each candidate dye, thyroglobulin was primarily used as a model protein, because its large surface area facilitated more molecules of dye binding per protein, and thus higher signal to noise ratios versus smaller proteins. Candidate dyes were examined on a UV-2501PC UV-Vis spectrometer to determine Amax values. Standard curves were prepared for quantification of molecules of dye; dyes were eliminated from consideration if sensitivity of detection was not greater than 10 μM in solution. Thyroglobulin (1-5 μM) was mixed with 100-fold molar excess of candidate dye dissolved in PBS and allowed to associate between 15 seconds to 2 hours at room temperature. After association, 50 μL of the dye-protein mixtures were passed through a mini Quick Spin Oligo Column (Sephadex G-25 resin, Roche) and centrifugated at 1000× g for 1 min to separate unbound dye from the protein-dye complex. The collected flow-through was examined with UV-Vis spectroscopy, and quantity of dye in the flow-through was calculated using the previously developed standard curve for the dye. Specific Binding was defined as [Paint Molecules Bound]/[Protein]. A plot of specific binding versus time was fit with the Michaelis-Menton equation in GraphPad Prism 6 as a model to determine association kinetics and maximum dye binding, where Vmax represents the maximum amount of dye molecules that bind to the protein at equilibrium. All curves are fit to data from two independent experiments. Specific binding of dye candidates to lysozyme was conducted similarly, with the change that lysozyme (2-10 μM) was mixed with 50-fold molar excess of dye candidate dissolved in PBS and allowed to associate for the indicated time points.

Lysozyme = molecular target: T2, Lysozyme (Gallus gallus, UniProt P00698); assay: Specific binding of dye to lysozyme
T2 construct: purchased Sigma Aldrich 12650-88-3
Procedure: as §1

bovine serum albumin = bovine serum albumin (Bos taurus, UniProt P02769); assay: Circular dichroism spectroscopy of BSA with dye, urea denaturation
Procedure: Circular dichroism spectroscopy was conducted using bovine serum albumin on a Jasco J-1500 CD spectrometer from 190-350 nm using a 1 mm cuvette. BSA stock solutions were prepared to 2 mg/mL from lyophilized protein in sterile-filtered 10 mM phosphate buffer, pH 7.0 and centrifuged at 16,000×g to remove particulates. Concentration was determined via A280 using an extinction coefficient of 43,824 M^−1 cm^−1 for BSA. Stocks were stored at −80° C. and diluted to the appropriate concentration in sterile-filtered MilliQ water for each experiment. Final concentration of BSA in each sample was 2 μM (0.12 mg/mL). Samples were incubated for 10 minutes with dye at a molar ratio equal to the specific binding of the molecule to the protein (i.e. 18 μM of FBBNA for 1 μM of BSA). Controls were incubated with equivolume amounts of MilliQ water in place of dye. […] Helical content of BSA spectra was determined using the online server DICHROWEB (Whitmore, L., and Wallace, B. A., “Protein secondary structure analyses from circular dichroism spectroscopy: methods and reference databases.” Biopolymers. 89, 392-400, 2008; Whitmore, L., and Wallace, B. A., “DICHROWEB, an online server for protein secondary structure analyses from circular dichroism spectroscopic data.” Nucleic Acids Res. 32, W668-673, 2004) to confirm native structure.

T2 sequence (P00698 19-147): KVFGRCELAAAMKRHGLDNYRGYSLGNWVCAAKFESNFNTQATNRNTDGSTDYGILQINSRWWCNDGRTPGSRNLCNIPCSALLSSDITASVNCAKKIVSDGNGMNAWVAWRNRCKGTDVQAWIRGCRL
Sequence of bovine serum albumin (P02769 25-607): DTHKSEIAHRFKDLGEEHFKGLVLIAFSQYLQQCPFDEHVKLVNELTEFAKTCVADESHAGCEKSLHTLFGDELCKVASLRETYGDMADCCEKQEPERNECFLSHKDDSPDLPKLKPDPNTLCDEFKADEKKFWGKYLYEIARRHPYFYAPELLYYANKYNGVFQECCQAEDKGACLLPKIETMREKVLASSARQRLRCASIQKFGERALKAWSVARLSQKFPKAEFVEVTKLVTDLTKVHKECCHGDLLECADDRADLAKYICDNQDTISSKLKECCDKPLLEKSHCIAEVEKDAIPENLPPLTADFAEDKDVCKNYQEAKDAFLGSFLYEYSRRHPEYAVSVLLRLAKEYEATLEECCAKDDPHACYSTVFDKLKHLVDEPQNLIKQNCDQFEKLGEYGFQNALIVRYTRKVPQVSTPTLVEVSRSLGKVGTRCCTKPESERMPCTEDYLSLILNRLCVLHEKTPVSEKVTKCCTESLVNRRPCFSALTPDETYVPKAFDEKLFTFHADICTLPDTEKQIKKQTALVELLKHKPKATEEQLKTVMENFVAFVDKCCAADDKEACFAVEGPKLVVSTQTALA
T1 sequence (P01267 20-2769): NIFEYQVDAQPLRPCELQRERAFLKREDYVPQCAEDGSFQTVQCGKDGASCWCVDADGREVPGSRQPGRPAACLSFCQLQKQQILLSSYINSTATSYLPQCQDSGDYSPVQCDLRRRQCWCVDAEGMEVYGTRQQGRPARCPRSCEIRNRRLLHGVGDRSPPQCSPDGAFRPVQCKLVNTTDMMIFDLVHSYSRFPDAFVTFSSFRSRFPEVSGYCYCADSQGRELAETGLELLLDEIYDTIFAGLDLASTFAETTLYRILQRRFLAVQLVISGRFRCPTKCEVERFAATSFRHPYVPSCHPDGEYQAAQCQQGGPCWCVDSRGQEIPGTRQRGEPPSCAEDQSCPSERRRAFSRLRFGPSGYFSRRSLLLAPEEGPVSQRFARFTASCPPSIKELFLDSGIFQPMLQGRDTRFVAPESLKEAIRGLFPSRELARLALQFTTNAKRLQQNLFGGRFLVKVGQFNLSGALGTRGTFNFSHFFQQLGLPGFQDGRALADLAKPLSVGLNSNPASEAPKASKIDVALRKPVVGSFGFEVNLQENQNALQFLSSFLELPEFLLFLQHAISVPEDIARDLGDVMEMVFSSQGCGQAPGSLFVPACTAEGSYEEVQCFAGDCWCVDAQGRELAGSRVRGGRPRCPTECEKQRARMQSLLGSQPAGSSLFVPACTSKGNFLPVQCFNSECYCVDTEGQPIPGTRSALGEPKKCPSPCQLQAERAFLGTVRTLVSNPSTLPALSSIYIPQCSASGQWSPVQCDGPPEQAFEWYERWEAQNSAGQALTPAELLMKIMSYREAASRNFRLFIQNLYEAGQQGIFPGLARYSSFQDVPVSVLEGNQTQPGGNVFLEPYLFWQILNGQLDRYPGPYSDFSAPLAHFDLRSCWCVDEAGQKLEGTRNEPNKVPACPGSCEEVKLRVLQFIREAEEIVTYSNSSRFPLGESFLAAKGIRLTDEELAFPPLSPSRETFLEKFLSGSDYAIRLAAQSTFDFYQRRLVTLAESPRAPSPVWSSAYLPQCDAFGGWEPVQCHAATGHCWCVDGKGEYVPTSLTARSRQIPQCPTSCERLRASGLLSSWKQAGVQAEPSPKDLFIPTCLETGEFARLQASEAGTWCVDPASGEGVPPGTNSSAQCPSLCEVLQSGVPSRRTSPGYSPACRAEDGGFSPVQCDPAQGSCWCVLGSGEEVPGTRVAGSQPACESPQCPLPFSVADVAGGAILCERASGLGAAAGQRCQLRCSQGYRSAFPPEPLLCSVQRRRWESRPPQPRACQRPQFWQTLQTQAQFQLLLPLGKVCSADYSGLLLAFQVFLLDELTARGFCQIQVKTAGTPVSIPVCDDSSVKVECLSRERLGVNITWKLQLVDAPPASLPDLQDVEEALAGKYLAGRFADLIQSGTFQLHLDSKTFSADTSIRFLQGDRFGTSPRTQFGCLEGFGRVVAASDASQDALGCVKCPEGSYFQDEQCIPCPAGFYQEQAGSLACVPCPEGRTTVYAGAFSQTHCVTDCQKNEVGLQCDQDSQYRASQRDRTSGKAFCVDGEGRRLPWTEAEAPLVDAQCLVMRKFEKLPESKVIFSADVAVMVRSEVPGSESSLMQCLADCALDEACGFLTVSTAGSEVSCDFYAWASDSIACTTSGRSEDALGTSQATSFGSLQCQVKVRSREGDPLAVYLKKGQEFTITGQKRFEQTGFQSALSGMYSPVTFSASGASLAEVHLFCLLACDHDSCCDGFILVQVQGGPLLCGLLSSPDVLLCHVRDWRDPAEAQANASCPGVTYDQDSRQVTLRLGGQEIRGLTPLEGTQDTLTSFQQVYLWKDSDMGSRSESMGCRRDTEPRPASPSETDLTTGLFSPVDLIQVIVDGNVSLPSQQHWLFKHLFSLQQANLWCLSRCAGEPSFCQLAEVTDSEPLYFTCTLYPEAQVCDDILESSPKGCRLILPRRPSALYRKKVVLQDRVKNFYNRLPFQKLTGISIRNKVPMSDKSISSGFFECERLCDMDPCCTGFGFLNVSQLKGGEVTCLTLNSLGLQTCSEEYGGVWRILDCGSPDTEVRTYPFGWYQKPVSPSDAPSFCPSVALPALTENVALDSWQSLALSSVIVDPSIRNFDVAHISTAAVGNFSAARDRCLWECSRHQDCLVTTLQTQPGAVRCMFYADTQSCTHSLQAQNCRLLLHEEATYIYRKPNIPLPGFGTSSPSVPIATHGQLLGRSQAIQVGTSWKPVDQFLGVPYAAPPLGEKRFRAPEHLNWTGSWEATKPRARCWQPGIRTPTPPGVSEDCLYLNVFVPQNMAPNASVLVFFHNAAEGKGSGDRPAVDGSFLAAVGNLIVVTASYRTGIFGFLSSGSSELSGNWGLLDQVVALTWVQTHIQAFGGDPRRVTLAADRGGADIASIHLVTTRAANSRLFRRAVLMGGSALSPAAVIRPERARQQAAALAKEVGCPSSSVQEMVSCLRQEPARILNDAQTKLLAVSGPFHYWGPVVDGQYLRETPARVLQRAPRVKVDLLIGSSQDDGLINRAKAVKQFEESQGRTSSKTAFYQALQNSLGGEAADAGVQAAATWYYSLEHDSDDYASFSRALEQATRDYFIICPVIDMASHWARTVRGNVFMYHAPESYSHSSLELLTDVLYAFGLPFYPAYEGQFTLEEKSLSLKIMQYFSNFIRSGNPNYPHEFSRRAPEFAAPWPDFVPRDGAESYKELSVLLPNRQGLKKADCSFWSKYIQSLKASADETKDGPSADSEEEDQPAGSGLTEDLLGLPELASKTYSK

Cc1cc(Cl)ccc1N=Nc1c(O)ccc2ccccc12 [FR2N]
Solubility of dye product [1]: FR2N: Bright Orange Pigment Insoluble

CC[C@H](C)[C@@H]1NC(=O)[C@H](CCSC)NC(=O)[C@H](C)NC(=O)[C@H](CCCNC(=N)N)NC(=O)[C@H](Cc2ccc(O)cc2)NC(=O)[C@@H](N)CSSC[C@@H](C(=O)O)NC(=O)[C@H]([C@@H](C)O)NC(=O)[C@H]([C@@H](C)CC)NC(=O)[C@H](CCCNC(=N)N)NC(=O)[C@H](CCCCN)NC(=O)[C@H](Cc2ccc(O)cc2)NC(=O)[C@H](CC(=O)O)NC(=O)[C@H](C)NC(=O)CNC(=O)CNC(=O)[C@H](Cc2ccc(O)cc2)NC(=O)[C@H](CO)NC1=O [Peptide 2] (H-CYRAMISYGGADYKRITC-OH; disulfide 1-18)
Solubility (to 1 mM) [2]: 40% CH3COOH

sodium 4-(4-(benzyl-et-amino)-ph-azo)-2,5-di-cl-benzenesulphonate [AO50]
Specific binding to thyroglobulin at equilibrium (Thyroglobulin): 15 molecules
Binding to lysozyme (in words) (Lysozyme): able to bind
Specific binding to lysozyme at equilibrium (Lysozyme; Vmax of Michaelis-Menten fit): 1 molecule
Effect of dye on native secondary structure of BSA (CD) (bovine serum albumin; 10 min incubation with dye): does not change
Denaturation of BSA by urea in the presence of dye (CD) (bovine serum albumin; urea 2M, 4M, 6M (FBBNA), 4M urea (AO50, combination)): attenuated; also recorded: partially stabilize

Cc1cc(Cl)ccc1N=Nc1cc(S(=O)(=O)O)c2ccccc2c1N [FRNA]
Binding to thyroglobulin (in words) (Thyroglobulin): None of the Fast Red TR-based dyes including FRNA, FRHA, and FRAGA showed any significant binding
Specific binding to thyroglobulin (Thyroglobulin; candidate dyes, Tables 3 and 4): No binding
Solubility of dye product [1]: Soluble

COc1cc(-c2ccc(N=Nc3c(O)ccc4ccccc34)c(OC)c2)ccc1N=Nc1c(O)ccc2ccccc12 [FBB2N]
Solubility of dye product [1]: FBB2N: Dark Blue Pigment Insoluble

CC[C@H](C)[C@H](NC(=O)[C@H](CCSC)NC(=O)[C@H](CS)NC(=O)[C@H](CCCNC(=N)N)NC(=O)[C@@H](N)Cc1ccc(O)cc1)C(=O)N[C@@H](CO)C(=O)N[C@@H](Cc1ccc(O)cc1)C(=O)NCC(=O)NCC(=O)N[C@@H](C)C(=O)N[C@@H](CC(=O)O)C(=O)N[C@@H](Cc1ccc(O)cc1)C(=O)N[C@@H](CCCCN)C(=O)N[C@@H](CCCNC(=N)N)C(=O)N[C@H](C(=O)N[C@H](C(=O)N[C@H](C(=O)O)C(C)C)[C@@H](C)O)[C@@H](C)CC [Peptide 1]
Solubility (to 1 mM) [2]: 60% CH3COOH, and 14% CH3CN

Cc1cc(-c2ccc(/N=N/c3c(S(=O)(=O)O)cc4cc(S(=O)(=O)O)cc(N)c4c3O)c(C)c2)ccc1/N=N/c1c(S(=O)(=O)O)cc2cc(S(=O)(=O)O)cc(N)c2c1O [TB]
Binding to thyroglobulin (in words) (Thyroglobulin): least specific binding
Specific binding to thyroglobulin at equilibrium (Thyroglobulin): 3 molecules
Binding to lysozyme (in words) (Lysozyme): unable to bind
Binding to lysozyme (in words) (Lysozyme; listed as Trypan Blue): not to lysozyme
